Experimental data: US8395037B2, “Pharmaceutical compositions for treating/preventing motor organ diseases” (Mitsubishi Corporation, priority 2005, dated 2013)

Legend:
MMP-3 = MMP-3 concentration in synovial fluid of osteoarthritis model knee joints (ELISA); format: in vivo, rabbit; details: various concentrations, sequential measurement, versus control knees
Protocol: (§1) Sequential biochemical examinations of blood and synovial fluid were also performed (pre-administration and fourth- and eighth-week post-administration of water-solubilized fullerene). The observed biochemical examination items were (A) hepatic function (GOT and GPT), renal function (urea nitrogen and creatinine), and electrolytes (Na, K, and Cl), (B) extracellular matrix-degrading enzyme production ability (MMP-1, 3, and 13), and (C) cartilage matrix-synthesizing ability (proteoglycan). The items of (A) were measured by commercially available testing equipments and items of (B) and (C) were measured by ELISA method.

[1] = General condition, organ histology and blood biochemical examination during eight-week administration; format: in vivo, rabbit
Protocol: In particular, in the eight-week administration, the inhibitory effect of water-solubilized fullerene on cartilage degeneration was more remarkable in the 1.0 μM and 10.0 μM administered groups rather than the 0.1 μM administered group. […] During the eight-week test period, decrease in body weight, insufficient feeding, hematuria, or abnormal hair coat was not observed in the experimental animals.
as §1

proteoglycan = experiment: Proteoglycan concentration in synovial fluid of osteoarthritis model knee joints (ELISA); format: in vivo, rabbit; details: sequential measurement
Protocol: as §1

[2] = tested on: osteoarthritis model animals (rabbits); experiment: Osteoarthritis rabbit model, intraarticular water-solubilized fullerene 0.1 to 40.0 μM, safranin O cartilage degeneration; format: in vivo; details: for Efficacy on cartilage degeneration (rabbits responding): eight-week administration
Protocol: Various concentrations (0.1, 1.0, 10.0, or 40.0 μM) of water-solubilized fullerene (cyclodextrin clathrate C60) was injected into the right knee joints of osteoarthritis model animals (rabbits), and solvent alone was injected into the left knee joints as controls intraarticularly once a week. On the fourth or eighth week after the start of administration, the knees were dissected and stained with safranin O, to compare the degree of cartilage degeneration of medial and lateral tibia.
As described above, the therapeutic effect of the four-week or eight-week repetitive administration with water-solubilized fullerene was confirmed. Therefore, the therapeutic effect of a single administration of water-solubilized fullerene was also examined. Immediately after the preparation of an osteoarthritis rabbit model, a single dose of water-solubilized fullerene was administered. On the eighth week, articular cartilage tissue samples were prepared, and the therapeutic effect was examined.

[3] = tested on: osteoarthritis model (rabbit); experiment: Comparative test of water-solubilized fullerene and hyaluronic acid formulation in osteoarthritis model; format: in vivo; details: 1.0 μM, 2.0 ml/rabbit, eighth week; compared with hyaluronic acid formulation
Protocol: The medicinal effect of water-solubilized fullerene (cyclodextrin clathrate C60) was examined comparatively with a known articular function-improving agent (the hyaluronic acid formulation Suvenyl (registered trademark)). Specifically, the effects at the eighth week after the start of treatment on rabbits in the following five groups (A) to (E) were examined. Each group consisted of four rabbits and the administration dosage was 2.0 ml/rabbit in all groups.
Test groups: (A) Sham-operation, group administered with Suvenyl; (B) Sham-operation, group administered with 50% polyethylene glycol; (C) Osteoarthritis model, group administered with 1.0 μM water-solubilized fullerene; (D) Osteoarthritis model, group administered with 50% Suvenyl; (E) Osteoarthritis model, group administered with 1.0 μM water-solubilized fullerene and Suvenyl.

[4] = Lubricating effect: pendulum-type dynamic friction coefficient measurement; format: physicochemical; details: for Dynamic friction coefficient: room temperature, mean of three
Protocol: Lubricating effect of fullerene was examined using three different solutions. 20 ml each of the solutions of (A) osteoarthritis patient-derived synovial fluid, (B) 50% polyethylene glycol solution, and (C) joint function-improving agent (hyaluronic acid formulation) were prepared, and dispensed into two tubes at 10 ml each. One 10 ml solution was mixed with fullerene (C60) to adjust the final concentration to 1.0 μM. The other 10 ml solution was used as a control solution. The dynamic friction coefficients of the respective solutions at room temperature were measured three times by a pendulum-type dynamic friction coefficient measuring apparatus (Japan Lubricating Oil Society), and the mean values were calculated. The dynamic friction coefficients were compared between the fullerene solutions and the control solutions.

[5] = 1 μM in 50% polyethylene glycol
[6] = 1 μM in hyaluronic acid formulation
[7] = 1 μM in osteoarthritis patient-derived synovial fluid

Compound	MMP-3 concentration in synovial fluid (MMP-3)	Decrease in body weight, insufficient feeding, hematuria, abnormal hair coat ([1]; eight-week test period)	Optical microscopic observation of organs other than the joints (brain, lung, liver, kidney, adrenal, testis) ([1]; eight-week test period)	Hepatic function, renal function, electrolyte balance ([1]; pre-administration, fourth and eighth week post-administration)	Proteoglycan concentration in synovial fluid (proteoglycan)	Cartilage degeneration inhibitory effect across doses ([2]; 0.1 μM to 40 μM, four-week administration)	Efficacy on cartilage degeneration (rabbits responding) ([2]; 0.1 μM)	Efficacy on cartilage degeneration (rabbits responding) ([2]; 1.0 μM)	Efficacy on cartilage degeneration (rabbits responding) ([2]; 10.0 μM)	Efficacy on cartilage degeneration (rabbits responding) ([2]; 40.0 μM)	Inhibitory effect on articular cartilage degeneration ([2]; 0.1, 1.0, 10.0 or 40.0 μM intraarticular once a week, four-week and eight-week administration)	Inhibitory effect on cartilage degeneration after single administration ([2]; single dose immediately after model preparation, eighth week, versus control knees)	Inhibitory effect on the production of cartilage matrix-degrading enzymes (MMPs) [3]	Producing/maintaining effect of proteoglycan [3]	Friction coefficient decreasing rate to control solution [4, 5] [%]	Dynamic friction coefficient [4, 5]	Friction coefficient decreasing rate to control solution [4, 6] [%]	Dynamic friction coefficient [4, 6]	Friction coefficient decreasing rate to control solution [4, 7] [%]	Dynamic friction coefficient [4, 7]
cyclodextrin clathrate C60 [water-solubilized fullerene]	not clear	not observed	no findings showing degeneration in the respective tissues	not significantly changed	not clear	almost equivalent	a mild efficacy in all four rabbits	a moderate efficacy in two rabbits and a remarkable efficacy in one rabbit out of a total of four	a remarkable efficacy in three rabbits out of a total of four	a mild efficacy in one rabbit and moderate efficacy in another rabbit out of a total of three	confirmed at the respective concentrations	no clear inhibitory effect on cartilage degeneration was observed	more remarkable effects than the hyaluronic acid formulation	more remarkable effects than the hyaluronic acid formulation	–	–	–	–	–	–
c12c3c4c5c1c1c6c7c2c2c8c3c3c9c4c4c%10c5c5c1c1c6c6c%11c7c2c2c7c8c3c3c8c9c4c4c9c%10c5c5c1c1c6c6c%11c2c2c7c3c3c8c4c4c9c5c1c1c6c2c3c41 [C60, fullerene (C60)]	–	–	–	–	–	–	–	–	–	–	–	–	–	–	25	0.104	42	0.116	37	0.111
